Measurements published in US8501946B2 (Glaxo Group Limited, priority 2009, dated 2013).

Each compound was assayed against T1, human recombinant P2X7 receptors (Homo sapiens, UniProt Q99572) (assay: Ethidium Accumulation Assay 1 (HEK293 cells, ATP-induced ethidium uptake)). Conditions: HEK293 cells expressing human P2X7; 1 mM ATP; sometimes mean of more than one measurement; read-out: Assay 1 (antagonist pIC50 for blocking ATP responses) (converted).
T1 construct: expressed in transfected cells
T1 sequence (Q99572 1-595): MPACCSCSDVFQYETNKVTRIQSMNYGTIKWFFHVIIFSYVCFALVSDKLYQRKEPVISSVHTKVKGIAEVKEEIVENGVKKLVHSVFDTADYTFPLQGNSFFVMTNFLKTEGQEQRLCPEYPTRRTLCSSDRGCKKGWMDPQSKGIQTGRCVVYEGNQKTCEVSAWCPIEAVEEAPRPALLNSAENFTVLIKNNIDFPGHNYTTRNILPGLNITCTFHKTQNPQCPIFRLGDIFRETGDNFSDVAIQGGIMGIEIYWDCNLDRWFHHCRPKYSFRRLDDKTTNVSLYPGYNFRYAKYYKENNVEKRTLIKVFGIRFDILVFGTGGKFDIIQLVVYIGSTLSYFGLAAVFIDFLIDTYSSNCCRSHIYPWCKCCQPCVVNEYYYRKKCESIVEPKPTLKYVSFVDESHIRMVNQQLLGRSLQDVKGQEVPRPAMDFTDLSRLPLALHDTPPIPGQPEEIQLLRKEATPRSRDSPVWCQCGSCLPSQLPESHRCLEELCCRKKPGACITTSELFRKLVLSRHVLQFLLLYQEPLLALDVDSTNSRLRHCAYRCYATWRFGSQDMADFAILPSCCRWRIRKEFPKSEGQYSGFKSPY
Format: cell-based

How did the IC50 turn out when `O=C(c1ccc(F)cc1Cl)N1CCn2c(nnc2-c2cccc(F)c2F)C1` [Example 131, 7-[(2-chloro-4-fluorophenyl)carbonyl]-3-(2,3-difluorophenyl)-5,6,7,8-tetrahydro[1,2,4]triazolo[4,3-a]pyrazine] was run?
Its IC50 is under 100 nM.

For `Cc1ccc(-c2nnc3n2CCN(C(=O)c2cccc(Cl)c2Cl)C3)nc1` [Example 60, 7-[(2,3-dichlorophenyl)carbonyl]-3-(5-methyl-2-pyridinyl)-5,6,7,8-tetrahydro[1,2,4]triazolo [4,3-a]pyrazine], which IC50 is on record?
Its IC50 is under 100 nM.

`Cc1cccc(-c2nnc3n2CCN(C(=O)c2cccc(C(F)(F)F)c2Cl)C3)n1` [Example 26, 7-{[2-chloro-3-(trifluoromethyl)phenyl]carbonyl}-3-(6-methyl-2-pyridinyl)-5,6,7,8-tetrahydro[1,2,4]triazolo [4,3-a]pyrazine] was tested. Which IC50 did it give?
The IC50 was under 10 nM.

How did the IC50 turn out when `Cn1nccc1-c1nnc2n1CCN(C(=O)c1cccc(Cl)c1Cl)C2` [Example 81, 7-[(2,3-dichlorophenyl)carbonyl]-3-(1-methyl-1H-pyrazol-5-yl)-5,6,7,8-tetrahydro[1,2,4]triazolo [4,3-]pyrazine] was run?
Its IC50 is under 100 nM.

How did the IC50 turn out when `O=C(c1cccc(C(F)(F)F)c1Cl)N1CCn2c(nnc2-c2ccncn2)C1` [Example 12, 7-{[2-chloro-3-(trifluoromethyl)phenyl]carbonyl}-3-(4-pyrimidinyl)-5,6,7,8-tetrahydro[1,2,4]triazolo[4,3-a]pyrazine] was run?
The IC50 was under 100 nM.

`Cn1cccc1-c1nnc2n1CCN(C(=O)c1cccc(C(F)(F)F)c1Cl)C2` [Example 29, 7-{[2-chloro-3-(trifluoromethyl)phenyl]carbonyl}-3-(1-methyl-1H-pyrrol-2-yl)-5,6,7,8-tetrahydro[1,2,4]triazolo [4,3-a]pyrazine] was tested. Which IC50 did it give?
Its IC50 is under 10 nM.

`O=C(c1ccc(F)cc1Cl)N1CCn2c(nnc2-c2cnc(Cl)cn2)C1` [Example 141, 7-[(2-Chloro-4-fluorophenyl)carbonyl]-3-(5-chloro-2-pyrazinyl)-5,6,7,8-tetrahydro[1,2,4]triazolo[4,3-a]pyrazine] was tested. Which IC50 did it give?
Its IC50 is under 501 nM.

For `O=C(c1ccc(Cl)c(C(F)(F)F)c1)N1CCn2c(nnc2-c2cnccn2)C1` [Example 104, 7-{[4-chloro-3-(trifluoromethyl)phenyl]carbonyl}-3-(2-pyrazinyl)-5,6,7,8-tetrahydro[1,2,4]triazolo [4,3-a]pyrazine], which IC50 is on record?
The IC50 was under 100 nM.

Which IC50 does the source give for `COc1cccc(-c2nnc3n2CCN(C(=O)c2ccc(F)cc2Cl)C3)c1` [Example 125, 7-[(2-chloro-4-fluorophenyl)carbonyl]-3-[3-(methyloxy)phenyl]-5,6,7,8-tetrahydro[1,2,4]triazolo[4,3-a]pyrazine] here?
The IC50 was under 100 nM.

Which IC50 does the source give for `O=C(c1cccc(C(F)(F)F)c1Cl)N1CCn2c(nnc2C2CCCCC2)C1` [Example 135, 7-{[2-chloro-3-(trifluoromethyl)phenyl]carbonyl}-3-cyclohexyl-5,6,7,8-tetrahydro[1,2,4]triazolo[4,3-a]pyrazine] here?
Its IC50 is under 100 nM.

For `CN(C)c1nnc2n1CCN(C(=O)c1cccc(C(F)(F)F)c1Cl)C2` [Example 20, 7-{[2-chloro-3-(trifluoromethyl)phenyl]carbonyl}-N,N-dimethyl-5,6,7,8-tetrahydro[1,2,4]triazolo [4,3-a]pyrazine-3-amine], which IC50 is on record?
Its IC50 is under 100 nM.

For `O=C(c1ccccc1Cl)N1CCn2c(nnc2-c2ccco2)C1` [Example 117, 7-[(2-chlorophenyl)carbonyl]-3-(2-furanyl)-5,6,7,8-tetrahydro[1,2,4]triazolo[4,3-a]pyrazine], which IC50 is on record?
Its IC50 is under 10 nM.

`O=C(c1cccc(C(F)(F)F)c1Cl)N1CCn2c(nnc2C2CCCC2)C1` [Example 139, 7-{[2-chloro-3-(trifluoromethyl)phenyl]carbonyl}-3-cyclopentyl-5,6,7,8-tetrahydro[1,2,4]triazolo[4,3-a]pyrazine] was tested. Which IC50 did it give?
Its IC50 is under 100 nM.

With `Cc1ccc(C(=O)N2CCn3c(nnc3-c3cnccn3)C2)c(C)c1` [Example 143, 7-[(2,4-dimethylphenyl)carbonyl]-3-(2-pyrazinyl)-5,6,7,8-tetrahydro[1,2,4]triazolo[4,3-a]pyrazine] as the compound, how does the IC50 read?
Its IC50 is under 501 nM.

Which IC50 does the source give for `O=C(c1cccc(C(F)(F)F)c1Cl)N1CCn2c(nnc2-c2ccccc2)C1` [Example 13, 7-{[2-Chloro-3-(trifluoromethyl)phenyl]carbonyl}-3-phenyl-5,6,7,8-tetrahydro[1,2,4]triazolo[4,3-a]pyrazine] here?
The IC50 was under 10 nM.

For `Cc1ccc(-c2nnc3n2CCN(C(=O)c2cccc(C(F)(F)F)c2Cl)C3)nc1` [Example 51, 7-{[2-chloro-3-(trifluoromethyl)phenyl]carbonyl}-3-(5-methyl-2-pyridinyl)-5,6,7,8-tetrahydro[1,2,4]triazolo [4,3-a]pyrazine], which IC50 is on record?
The IC50 was under 100 nM.

Which IC50 does the source give for `O=C(c1ccccc1Cl)N1CCn2c(nnc2-c2ccccn2)C1` [Example 75, 7-[(2-chlorophenyl)carbonyl]-3-(2-pyridinyl)-5,6,7,8-tetrahydro[1,2,4]triazolo [4,3-a]pyrazine] here?
Its IC50 is under 100 nM.

For `Cc1ncccc1-c1nnc2n1CCN(C(=O)c1ccc(F)cc1Cl)C2` [Example 74, 7-[(2-chloro-4-fluorophenyl)carbonyl]-3-(2-methyl-3-pyridinyl)-5,6,7,8-tetrahydro[1,2,4]triazolo [4,3-a]pyrazine], which IC50 is on record?
Its IC50 is under 501 nM.

How did the IC50 turn out when `Cc1cccnc1-c1nnc2n1CCN(C(=O)c1cccc(C(F)(F)F)c1Cl)C2` [Example 28, 7-{[2-chloro-3-(trifluoromethyl)phenyl]carbonyl}-3-(3-methyl-2-pyridinyl)-5,6,7,8-tetrahydro[1,2,4]triazolo [4,3-a]pyrazine] was run?
Its IC50 is under 10 nM.

With `O=C(c1cccc(C(F)(F)F)c1Cl)N1CCn2c(nnc2-c2cccc(F)n2)C1` [Example 53, 7-{[2-chloro-3-(trifluoromethyl)phenyl]carbonyl}-3-(6-fluoro-2-pyridinyl)-5,6,7,8-tetrahydro[1,2,4]triazolo [4,3-a]pyrazine] as the compound, how does the IC50 read?
Its IC50 is under 10 nM.

With `O=C(c1ccccc1Cl)N1CCn2c(nnc2-c2cnccn2)C1` [Example 120, 7-[(2-chlorophenyl)carbonyl]-3-(2-pyrazinyl)-5,6,7,8-tetrahydro[1,2,4]triazolo[4,3-a]pyrazine] as the compound, how does the IC50 read?
Its IC50 is under 100 nM.

How did the IC50 turn out when `Cc1ncccc1-c1nnc2n1CCN(C(=O)c1cccc(C(F)(F)F)c1Cl)C2` [Example 65, 7-{[2-chloro-3-(trifluoromethyl)phenyl]carbonyl}-3-(2-methyl-3-pyridinyl)-5,6,7,8-tetrahydro[1,2,4]triazolo [4,3-a]pyrazine] was run?
Its IC50 is under 100 nM.

How did the IC50 turn out when `O=C(c1ccccc1Cl)N1CCn2c(nnc2-c2ccncn2)C1` [Example 116, 7-[(2-chlorophenyl)carbonyl]-3-(4-pyrimidinyl)-5,6,7,8-tetrahydro[1,2,4]triazolo[4,3-a]pyrazine] was run?
The IC50 was under 501 nM.

`CCc1nnc2n1CCN(C(=O)c1cccc(Cl)c1Cl)C2` [Example 5, 7-[(2,3-dichlorophenyl)carbonyl]-3-ethyl-5,6,7,8-tetrahydro[1,2,4]triazolo [4,3-a]pyrazine] was tested. Which IC50 did it give?
The IC50 was under 100 nM.

With `O=C(c1ccc(F)cc1Cl)N1CCn2c(nnc2-c2cccnc2)C1` [Example 39, 7-[(2-chloro-4-fluorophenyl)carbonyl]-3-(3-pyridinyl)-5,6,7,8-tetrahydro[1,2,4]triazolo [4,3-a]pyrazine] as the compound, how does the IC50 read?
The IC50 was under 100 nM.

`O=C(c1cccc(C(F)(F)F)c1Cl)N1CCn2c(nnc2N2CCCCC2)C1` [Example 23, 7-{[2-chloro-3-(trifluoromethyl)phenyl]carbonyl}-3-(1-piperidinyl)-5,6,7,8-tetrahydro[1,2,4]triazolo [4,3-a]pyrazine] was tested. Which IC50 did it give?
Its IC50 is under 100 nM.

With `Cc1nc(-c2nnc3n2CCN(C(=O)c2ccc(F)cc2Cl)C3)cs1` [Example 136, 7-[(2-chloro-4-fluorophenyl)carbonyl]-3-(2-methyl-1,3-thiazol-4-yl)-5,6,7,8-tetrahydro[1,2,4]triazolo[4,3-a]pyrazine] as the compound, how does the IC50 read?
Its IC50 is under 501 nM.

Which IC50 does the source give for `Cc1cccnc1-c1nnc2n1CCN(C(=O)c1cccc(Cl)c1Cl)C2` [Example 66, 7-[(2,3-dichlorophenyl)carbonyl]-3-(3-methyl-2-pyridinyl)-5,6,7,8-tetrahydro[1,2,4]triazolo [4,3-a]pyrazine] here?
Its IC50 is under 100 nM.

What follows are compounds tested against T1, human recombinant P2X7 receptors (assay: Ethidium Accumulation Assay 2 (HEK293 cells, ATP-induced ethidium uptake)). Conditions: HEK293 cells expressing human P2X7; sometimes mean of more than one measurement; read-out: Assay 2 (antagonist pIC50 for blocking ATP responses) (converted).
Format: cell-based
Protocol: Eithidium Accumulation Assay 2
Human Embryonic Kidney (HEK) 293 cells, stably expressing human recombinant P2X7 receptors, were grown in poly-D-lysine pretreated 96 well plates for 24 hours at 37° C.
The cells were washed with assay buffer (100 μL), before addition of 25 μL of assay buffer and then 25 ul of assay buffer containing the putative P2X7 receptor antagonist compound. The cells were then incubated at room temperature (19-21° C.) for 30 min before addition of ATP solution (50 μM). […] Antagonist pIC50 values for blocking ATP responses were determined using iterative curve fitting techniques.

`Cc1ccnc(-c2nnc3n2CCN(C(=O)c2ccc(Cl)c(F)c2Cl)C3)n1` [Example 177, 7-[(2,4-dichloro-3-fluorophenyl)carbonyl]-3-(4-methyl-2-pyrimidinyl)-5,6,7,8-tetrahydro[1,2,4]triazolo[4,3-a]pyrazine] was tested. Which IC50 did it give?
Its IC50 is under 10 nM.

`O=C(c1ccc(F)c(Cl)c1Cl)N1CCn2c(nnc2-c2ncns2)C1` [Example 169, 7-[(2,3-dichloro-4-fluorophenyl)carbonyl]-3-(1,2,4-thiadiazol-5-yl)-5,6,7,8-tetrahydro[1,2,4]triazolo[4,3-a]pyrazine] was tested. Which IC50 did it give?
Its IC50 is under 10 nM.
